# Test system: E. coli Nissle
# Experiment: SEM analysis of bacterial agglutination
# Type: cell-based, Escherichia coli
# Conditions: 3 µM proHD6 treated with trypsin before incubation (trypsin inactivated with APMSF), 30 min, 50 mM Tris-maleate pH 6.4
# Description: Bacteria were grown aerobically at 37 °C overnight in LB media. The next morning the strains were subcultured and grown to mid-logarithmic phase in LB media. An aliquot of the bacteria (0.5–2 × 10^7 CFU mL^–1) was removed, sedimented by centrifugation (7000g × 2 min, 4 °C), washed twice with 50 mM Tris-maleate buffer, pH 6.4, and then resuspended in 0.5 mL of the 50 mM Tris-maleate buffer. The bacterial suspension was incubated at room temperature for 30 min with buffer control, 0.4 μM APMSF-inactivated trypsin, 3 μM proHD6, 3 μM trypsin-cleaved proHD6, or 3 μM HD6. Trypsin-cleaved proHD6 was prepared by incubating 30 μM proHD6 with 4 μM trypsin (Affimetrix, Santa Clara, CA) for 1 h at room temperature in 50 mM Tris-maleate buffer, pH 6.4. At the end of incubation, the trypsin was inactivated by addition of APMSF (p-amidinophenylmethylsulfonylfluoride HCl, Millipore, 25 μg mL^–1), and the mixture was added to the bacterial suspension. The APMSF-inactivated trypsin was similarly prepared, except that proHD6 was omitted from the preincubation. After a 30 min incubation, the treated bacterial suspensions were sedimented by centrifugation (7000g × 5 min, 4 °C), and the buffer supernatant was carefully removed. […]
sequence,measurement,value
"EPLQAEDDPLQAKAYEADAQEQRGANDQDFAVSFAEDASSSLRALGSTRAFTCHCRRSCYSTEYSYGTCTVMGINHRFCCL (disulfide (positions not given here)) [proHD6, 81-residue propeptide of human α-defensin 6, recombinant, from His6-SUMO-proHD6]","bacterial agglutination (SEM), trypsin-cleaved",entangled and agglutinated E. coli
